Here are results for 25 molecules from US20210355106A1, “NEW AMINO-PYRIMIDONYL-PIPERIDINYL DERIVATIVES, A PROCESS FOR THEIR PREPARATION AND PHARMACEUTICAL COMPOSITIONS CONTAINING THEM” (LES LABORATOIRES SERVIER, priority 2018, published 2021).

Assay [1] relates to Z138 mantle cell lymphoma tumour cell lines. As to the kind of experiment: In vitro cytotoxicity, MTT assay. The settings on record: Z138 cells, exposed to the test compounds for 96 hours. In kind it is cell-based. Summed up:
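Z138 cells exposed to compounds for 96 hours, then MTT added for 4 hours. Formazan absorbance at 540 nm serves as the measure of viable cell number.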

The target in a further assay is T1, USP7 (Homo sapiens, UniProt Q93009, C315A).
T1 construct: 0.25 nM His-His-USP7 (aa208-560, |C315A|) was incubated with compound; His-His (N)
T1 sequence (Q93009 208-560 C315A): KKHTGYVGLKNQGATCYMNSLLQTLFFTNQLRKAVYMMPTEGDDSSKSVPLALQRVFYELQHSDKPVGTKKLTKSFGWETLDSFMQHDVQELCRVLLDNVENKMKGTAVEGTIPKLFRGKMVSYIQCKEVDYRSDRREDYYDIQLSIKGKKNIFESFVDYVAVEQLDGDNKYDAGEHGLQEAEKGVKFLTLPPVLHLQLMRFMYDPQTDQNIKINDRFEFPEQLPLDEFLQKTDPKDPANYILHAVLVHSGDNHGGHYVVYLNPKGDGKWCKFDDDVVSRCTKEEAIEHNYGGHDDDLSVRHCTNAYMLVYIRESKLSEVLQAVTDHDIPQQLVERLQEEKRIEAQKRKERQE
As to the kind of experiment: Inhibition of USP7 by Fluorescence Intensity (FLINT) readings, Ubiquitin-Rhodamine-110 substrate. It counts as biochemical. The settings on record: 0.25 nM His-His-USP7 (aa208-560), 60 minutes at 30° C. preincubation; Ki determined from IC50 according to Cer et al. Summed up: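 His-tagged USP7 (aa208-560, C315A), 0.25 nM, preincubated with compound 60 min at 30 °C in 100 mM Bicine pH 8.0, 0.01% Triton X-100, 1 mM TCEP, 10% DMSO. Ubiquitin-Rhodamine-110 (50 nM or 4 μM) added; kinetic fluorescence (Ex 485/Em 535 nm) over 21 min; IC50 from 11-point curves, Ki derived from IC50.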

As to `Nc1c(Oc2ccc(F)cc2)ncn(C[C@@]2(O)CCN(C(=O)[C@@H]3CCN(Cc4ccncn4)C[C@H]3c3ccccc3)CC2(F)F)c1=O` [Example 212, 5-amino-3-[[(4S)-3,3-difluoro-4-hydroxy-1-[(3R,4R)-3-phenyl-1-(pyrimidin-4-ylmethyl)piperidine-4-carbonyl]-4-piperidyl]methyl]-6-(4-fluorophenoxy)pyrimidin-4-one], the IC50 in assay [1] (Homo sapiens, Z-138) amounted to 21.4 nM. Also, the Ki on USP7 stood at 34.1 nM.
The like results for `Cc1ccc(-c2cc(F)c(C(=O)N3CC[C@@H](C(=O)N4CCC(O)(Cn5cnc(Oc6cccc(C(F)(F)F)c6)c(N)c5=O)CC4)[C@H](c4ccccc4)C3)s2)cn1` [Example 101, 5-amino-3-[[1-[(3R,4R)-1-[3-fluoro-5-(46-methyl-3-pyridyl)thiophene-2-carbonyl]-3-phenyl-piperidine-4-carbonyl]-4-hydroxy-4-piperidyl]methyl]-6-[3-(trifluoromethyl)phenoxy]pyrimidin-4-one] were, in that order, 25.3 nM and 11 nM.
The like results for `Nc1c(Oc2ccc(F)cc2)ncn(CC2(O)CCN(C(=O)[C@@H]3CCN(C(=O)c4cc(Cl)cc(Cl)c4)C[C@H]3c3ccccc3)CC2)c1=O` [Example 130] were, in that order, 7.5 nM and 1.83 nM.
As to `Cc1nc(N2CCOCC2)sc1C(=O)N1CC[C@@H](C(=O)N2CCC(O)(Cn3cnc(Oc4ccc(F)cc4)c(N)c3=O)CC2)[C@H](c2ccccc2)C1` [Example 64, 5-amino-6-(4-fluorophenoxy)-3-[(4-hydroxy-1-{(3R,4R)-1-[4-methyl-2-(morpholin-4-yl)-1,3-thiazole-5-carbonyl]-3-phenylpiperidine-4-carbonyl)piperidin-4-yl)methyl]pyrimidin-4(3H)-one], in assay [1] (Homo sapiens, Z-138), the IC50 turned out to be 8.39 nM. Also, the Ki at USP7 stood at 6.4 nM.
`Cc1ccc(-c2nc(C)c(C(=O)N3CC[C@@H](C(=O)N4CC[C@](O)(Cn5cnc(Oc6ccccc6)c(N)c5=O)C(F)(F)C4)[C@H](c4ccccc4)C3)s2)cn1` [Example 119] had an IC50 in assay [1] (Homo sapiens, Z-138) of 4.3 nM. Further, the Ki at USP7 amounted to 1.53 nM.
`Nc1c(Oc2ccc(F)cc2)ncn(CC2(O)CCN(C(=O)[C@@H]3CCN(C(=O)c4cscn4)C[C@H]3c3ccccc3)CC2)c1=O` [Example 28, 5-amino-6-(4-fluorophenoxy)-3-[[4-hydroxy-1-[(3R,4R)-3-phenyl-1-thiazole-4-carbonyl)piperidine-4-carbonyl-4-piperidyl]methyl]pyrimidin-4-one]: in assay [1] (Homo sapiens, Z-138), the IC50 came out at 138 nM. Further, on USP7, the affinity, expressed as Ki, was 64.1 nM.
The like results for `Nc1c(Oc2ccc(F)cc2)ncn(CC2(O)CCN(C(=O)[C@@H]3CCN(C(=O)C4(c5ccccc5)CC4)C[C@H]3c3ccccc3)CC2)c1=O` [Example 132] were, in that order, 47.8 nM and 35.4 nM.
With `Cc1ccc(-c2ccc(S(=O)(=O)N3CC[C@@H](C(=O)N4CCC(O)(Cn5cnc(Oc6ccc(F)cc6)c(N)c5=O)CC4)[C@H](c4ccccc4)C3)s2)cn1` [Example 117], the IC50 in assay [1] (Homo sapiens, Z-138) turned out to be 27.6 nM. This molecule also showed a Ki at USP7 of 28.6 nM.
The like results for `Nc1c(Oc2ccc(F)cc2)ncn(C[C@@]2(O)CCN(C(=O)[C@@H]3CCN(C(=O)c4sc(I)cc4F)C[C@H]3c3ccccc3)CC2(F)F)c1=O` [Example 104, 5-amino-3-[[(4S)-3,3-difluoro-1-[(3R,4R)-1-(3-fluoro-5-iodo-thiophene-2-carbonyl)-3-phenyl-piperidine-4-carbonyl]-4-hydroxy-4-piperidyl]methyl]-6-(4-fluorophenoxy)pyrimidin-4-one] were, in that order, 37.2 nM and 15 nM.
The like results for `Cc1ccc(-c2nc(C)c(C(=O)N3CC[C@@H](C(=O)N4CC[C@](O)(Cn5cnc(Oc6ccc(CN)cc6)c(N)c5=O)C(F)(F)C4)[C@H](c4ccccc4)C3)s2)cn1` [Example 210] were, in that order, 1.85 nM and 0.215 nM.
`Cc1cnc(CN2CC[C@@H](C(=O)N3CC[C@](O)(Cn4cnc(Oc5ccc(Cl)cc5)c(N)c4=O)C(F)(F)C3)[C@H](c3ccccc3)C2)cn1` [Example 221, 5-amino-6-(4-chlorophenoxy)-3-[[(4S)-3,3-difluoro-4-hydroxy-1-[(3R,4R)-1-[(5-methylpyrazin-2-yl)methyl]-3-phenyl-piperidine-4-carbonyl]-4-piperidyl]methyl]pyrimidin-4-one] showed an IC50 in assay [1] (Homo sapiens, Z-138) of 10.2 nM. Moreover, at USP7, affinity was put at a Ki of 35.5 nM.
`Cc1nc(-c2ccc(C(F)(F)F)nc2)sc1C(=O)N1CC[C@@H](C(=O)N2CCC(O)(Cn3cnc(Oc4ccc(F)cc4)c(N)c3=O)CC2)[C@H](c2ccccc2)C1` [Example 42, 5-amino-6-(4-fluorophenoxy)-3-({4-hydroxy-1-{(3R,4R)-1-{4-methyl-2-[6-(trifluromethyl)pyridin-3-yl]-1,3-thiazole-5carbonyl)-3-phenylpiperidine-4-carbonyl]piperidin-4-yl}methyl)pyrimidin-4(3H)-one] returned a half-maximal inhibitory concentration (IC50) in assay [1] of 3.66 nM. Further, on USP7, the inhibition constant Ki was 4.1 nM.
`COc1cc(Cl)cc(Oc2ncn(C[C@@]3(O)CCN(C(=O)[C@@H]4CCN(Cc5ccnc(C)n5)C[C@H]4c4ccccc4)CC3(F)F)c(=O)c2N)c1` [Example 175, 5-amino-6-(3-chloro-5-methoxy-phenoxy)-3-[[(4S)-3,3-difluoro-4-hydroxy-1-[(3R,4R)-1-[(2-methylpyrimidin-4-yl)methyl]-3-phenyl-piperidine-4-carbonyl]-4-piperidyl]methyl]pyrimidin-4-one] gave an IC50 in assay [1] (Homo sapiens, Z-138) of 26.5 nM. The same molecule had a Ki on USP7 of 81.2 nM.
`CN1CCN(c2cccc(C(=O)N3CC[C@@H](C(=O)N4CCC(O)(Cn5cnc(Oc6ccc(F)cc6)c(N)c5=O)CC4)[C@H](c4ccccc4)C3)c2)CC1` [Example 56] returned an IC50 in assay [1] (Homo sapiens, Z-138) of 42 nM. This molecule also displayed a Ki on USP7 of 16 nM.
`CN(C(=O)CN1CC[C@@H](C(=O)N2CCC(O)(Cn3cnc(Oc4ccc(F)cc4)c(N)c3=O)CC2)[C@H](c2ccccc2)C1)c1ccccc1` [Example 74] displayed an IC50 in assay [1] (Homo sapiens, Z-138) of 70 nM. At USP7, this molecule displayed a Ki of 78 nM.
The like results for `Cc1ccc(-c2c(Cl)sc(C(=O)N3CC[C@@H](C(=O)N4CCC(O)(Cn5cnc(Oc6ccc(F)cc6)c(N)c5=O)CC4)[C@H](c4ccccc4)C3)c2F)cn1` [Example 107] were, in that order, 7.64 nM and 3.3 nM.
Molecule “5-amino-3-[[(3SR,4RS)-3-fluoro-4-hydroxy-1- (3R,4R)-1-[4-methyl-2-(6-methyl-3-pyridyl)thiazole-5-carbonyl]-3-phenyl-piperidine-4carbonyl]-4-piperidyl]methyl]-6-(4-fluorophenoxy)pyrimidin-4-one and 5-amino-3-[[(3RS,4SR)-3-fluoro-4-hydroxy-1-(3R,4R)-1-[4-methyl-2-(6-methyl-3-pyridyl)thiazole-5-carbonyl]-3-phenyl-piperidine-4-carbonyl]-4-piperidyl]methyl]-6-(4-fluorophenoxy)pyrimidin-4-one [Example 197]” gave an IC50 in assay [1] of 9.7 nM. For the same molecule, the Ki on USP7 was found to be 14 nM.
`Nc1c(Oc2cccc(C(F)(F)F)c2)ncn(CC2(O)CCN(C(=O)[C@@H]3CCN(C(=O)c4sc(I)cc4F)C[C@H]3c3ccccc3)CC2)c1=O` [Example 99, 5-amino-3-[[1-((3R,4R)-1-(3-fluoro-5-iodo-thiophene-2-carbonyl)-3-phenyl-piperidine-4-carbonyl]-4-hydroxy-4-piperidyl]methyl]-6-[3-(trifluoromethyl)phenoxy]pyrimidin-4-one] gave an IC50 in assay [1] (Homo sapiens, Z-138) of 120 nM. The molecule also gave a Ki at USP7 of 56 nM.
In assay [1] (Homo sapiens, Z-138), `Nc1c(Oc2ccc(F)cc2)ncn(CC2(O)CCN(C(=O)[C@@H]3CCN(C(=O)c4sc(Cl)c(Br)c4F)C[C@H]3c3ccccc3)CC2)c1=O` [Example 106, 5-amino-3-[[I-[(3R,4R)-1-(4-bromo-5-chloro-3-fluoro-thiophene-2-carbonyl)-3-phenyl-piperidine-4-carbonyl]-4-hydroxy-4-piperidyl]methyl]-6-(4-fluorophenoxy)pyrimidin-4-one] displayed a half-inhibitory concentration (IC50) of 18.6 nM. For the same molecule, the Ki on USP7 is 15 nM.
As for `Cc1nc(Br)sc1C(=O)N1CC[C@@H](C(=O)N2CCC(O)(Cn3cnc(Oc4ccc(F)cc4)c(N)c3=O)CC2)[C@H](c2ccccc2)C1` [Example 29, 5-amino-3-({1-[(3R,4R)-1-(2-bromo-4-methyl-1,3-thiazole-5-carbonyl)-3-phenylpiperidine-4-carbonyl]-4-hydroxypiperidin-4-yl}methyl)-6-(4-fluorophenoxy)pyrimidin-4(3H)-one], in assay [1] (Homo sapiens, Z-138), the IC50 was determined as 1.8 nM. The Ki at USP7 turned out to be 7.1 nM.
The like results for `Nc1c(Oc2ccc(F)cc2)ncn(C[C@@]2(O)CCN(C(=O)[C@@H]3CCN(Cc4cccnn4)C[C@H]3c3ccccc3)CC2(F)F)c1=O` [Example 203] were, in that order, 33 nM and 47.1 nM.
As for `Cc1nc(-c2ccc(F)cc2)sc1C(=O)N1CC[C@@H](C(=O)N2CC[C@](O)(Cn3cnc(Oc4ccc(F)cc4)c(N)c3=O)C(F)(F)C2)[C@H](c2ccccc2)C1` [Example 44], the IC50 in assay [1] (Homo sapiens, Z-138) was determined as 7.4 nM. Further, on USP7, the Ki worked out at 18.1 nM.
Molecule `Cc1ccc(-c2nc(C)c(C(=O)N3CC[C@@H](C(=O)N4CCC(O)(Cn5cnc(Oc6cccc(C(F)(F)F)c6)c(N)c5=O)CC4)[C@H](c4ccccc4)C3)s2)cn1` [Example 26] came in with an IC50 in assay [1] (Homo sapiens, Z-138) of 20 nM. The same molecule gave a Ki at USP7 of 6.1 nM.
The like results for `Nc1c(Oc2ccc(F)cc2)ncn(C[C@@]2(O)CCN(C(=O)[C@@H]3CCN(C(=O)Nc4ccccc4)C[C@H]3c3ccccc3)CC2(F)F)c1=O` [Example 77] were, in that order, 13 nM and 37 nM.
Take `Cc1ccc(-c2cc(F)cc(C(=O)N3CC[C@@H](C(=O)N4CCC(O)(Cn5cnc(Oc6ccc(F)cc6)c(N)c5=O)CC4)[C@H](c4ccccc4)C3)c2)cn1` [Example 121]: half-maximal inhibition in assay [1] (Homo sapiens, Z-138) (IC50) required 6.4 nM. In addition, at USP7, the affinity corresponds to a Ki of 4.68 nM.
